What all share (assay): DTP human tumour cell line panel, 48 h
The test system of assay [1] is ACHN renal.
Assay [2] has as its system HCT-116 colon.
For assay [3], the system named is KM12 colon.
The subject of assay [4] is MALME-3M melanoma.
In assay [5] the test system is NCI-H226 lung.
Assay [6] concerns RXF 393 renal.
In assay [7] the test system is SF-268 CNS.
Assay [8] relates to SK-MEL-28 melanoma.
Assay [9] relates to SN12C renal.
For assay [10], the system named is UO-31 renal.

Molecules are shown by their SMILES. Where “and” joins values, the source holds several entries; their conditions need not be identical. Identical values can stand only once.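 The compound was tested at five concentrations on cells cultured in 96-well plates, with a 48-hour exposure period. Here, GI50 denotes the concentration required for 50% inhibition of growth. At the TGI there is no net growth.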

Turning to `CCOC(=O)C(Cc1cc(OC)c(CC(C(=O)OCC)C(=O)OCC)cc1OC)C(=O)OCC`, the total growth inhibition concentration (TGI) in [1] was more than 100 µM; in assay [2], more than 100 µM; in [3] it was more than 100 µM; in assay [4], more than 100 µM; in assay [5], more than 100 µM; in assay [6], 97.7 µM. For the same molecule, the total growth inhibition concentration (TGI) in assay [7], in assay [8], in assay [9] and in assay [10] was more than 100 µM each time.
In the case of `COc1cc(C=NCC(=O)CSC(c2ccccc2)c2ccccc2)ccc1O`, the GI50 in [1] is 12.5 µM; in assay [2], 8.69 µM; in assay [3], 11.9 µM; in assay [4] it was 6.11 µM; in assay [5], 16.8 µM; in assay [6], 13.4 µM. For the same molecule, the GI50 in assay [7] is 17.2 µM; in assay [8], 14.4 µM; in assay [9], 14.1 µM; in assay [10] it was 12.7 µM. For the same molecule, the total growth inhibition concentration (TGI) in [1] is 31.8 µM; in [2] it was 21 µM; in [3] it was 26.3 µM; in [4] it was 22.4 µM; in assay [5], 38.5 µM; in assay [6], 26.8 µM. Further, the total growth inhibition concentration (TGI) was determined as 40 µM in assay [7], 27.6 µM in assay [8], 28.1 µM in assay [9] and 29.1 µM in assay [10].
As for `O=C1N=C2N=C(c3ccc(Cl)cc3)N(c3ccc(Cl)cc3)N2Sc2ccccc21`, the total growth inhibition concentration (TGI) in [1], in assay [2], in [3], in assay [4], in assay [5] and in [6] was more than 100 µM each time. For the same molecule, the concentration for total growth inhibition (TGI) in assay [7], in [8], in assay [9] and in assay [10] was more than 100 µM throughout.
As for `O=C1C=C(NCCc2ccccc2)c2ccccc2C1=O`, the TGI in assay [1] was determined as 12.2 µM; in [2] it was 18 µM; in [3], 8.72 µM; in assay [4] it was 2.47 µM; in [5], 4.61 µM; in assay [6], 20.4 µM. Besides, the concentration for total growth inhibition (TGI) in assay [7] came to 23.1 µM; in assay [8], 3.96 µM; in assay [9] it was 3.37 µM; in [10] it was 11.4 µM.
In the case of `Cc1c(-c2ccc(-c3ccccc3F)cc2)nc2ccc(F)cc2c1C(=O)O`, the GI50 in assay [1] was 0.617 µM and 1.67 µM; in assay [2], 0.5 µM; in assay [3], 0.645 µM and 0.889 µM; in assay [4], 22.7 µM and 43.9 µM; in [5] it was 38.3 µM and 29.4 µM; in assay [6], 76 µM. For the same molecule, the GI50 is 22.4 µM and 67.8 µM in [8]; 2.63 µM and 5.25 µM in assay [9]; 1.85 µM and 2.65 µM in assay [10]. The total growth inhibition concentration (TGI) in [1] was 181 µM and 492 µM; in [2] it was 78.7 µM and 124 µM; in [3], 109 µM and 198 µM; in assay [4], 107 µM and 293 µM; in [5], 216 µM and 209 µM; in assay [6], 121 µM and 236 µM. In addition, the TGI in assay [7] was 173 µM and 866 µM; in assay [8], 158 µM and 400 µM; in assay [9] it was 80.6 µM and 280 µM; in assay [10], 78.9 µM and 105 µM.
As to `Cc1cc(C)c(-c2c(O)c(Br)c(-c3c(C)cc(C)c(Br)c3C)c(O)c2Br)c(C)c1Br`, the GI50 is 3.14 µM in assay [1]; 2.13 µM in [2]; 3.47 µM in assay [3]; 1.65 µM in [4]; 2.54 µM in assay [5]; 2.27 µM in [6]. Moreover, the GI50 in assay [7] was 3.7 µM; in assay [8], 2.66 µM; in assay [9] it was 2.69 µM; in assay [10], 1.29 µM. The concentration for total growth inhibition (TGI) in [1] worked out at 13 µM; in assay [2], 5.53 µM; in assay [3], 13.1 µM; in assay [4], 5.8 µM; in [5], 9.52 µM; in assay [6], 7.31 µM. Also, the TGI worked out at 16.4 µM in assay [7], 12.8 µM in assay [8], 15 µM in assay [9] and 8.22 µM in assay [10].
Take `CCOC1=C/C(=N\Nc2ccc([N+](=O)[O-])cc2)CCC1`: the TGI is 34.8 µM in assay [1]; more than 100 µM in [2]; more than 100 µM in assay [3]; more than 100 µM in assay [4]; more than 100 µM in assay [5]; 63.1 µM in [6]. Moreover, the total growth inhibition concentration (TGI) in [7] is 44.9 µM; in assay [8], 72.6 µM; in assay [9], more than 100 µM; in assay [10], 35.1 µM.
For the molecule `COC(=O)c1c(C(=O)O)c(-c2ccccc2)c(-c2ccccc2)c(-c2ccccc2)c1-c1ccccc1`, the GI50 in assay [1] was more than 100 µM; in assay [2], 77.9 µM; in [3], more than 100 µM; in assay [4] it was more than 100 µM; in [5] it was more than 100 µM; in assay [6], more than 100 µM. For the same molecule, the GI50 in assay [7] is more than 100 µM; in assay [8] it was 93.4 µM; in assay [9] it was more than 100 µM; in [10], 14.7 µM. Besides, the TGI in [1], in assay [2], in [3], in assay [4], in [5] and in [6] was more than 100 µM in each case. Further, the TGI is more than 100 µM in assay [7], more than 100 µM in assay [8], more than 100 µM in assay [9] and 43.5 µM in assay [10].
In the case of `O=C(Nc1ccccc1)N1C(c2ccccc2)=N[C@@H](c2ccccc2)[C@@H]1c1ccccc1`, the TGI came out at 31.4 µM in [1]; 36.3 µM in [2]; 34 µM in assay [3]; 34.7 µM in assay [4]; 46.4 µM in assay [5]; 34.2 µM in [6]. In addition, the TGI in [7] turned out to be 49.2 µM; in [8], 30.6 µM; in assay [9], 47.2 µM; in [10] it was 30.6 µM.
As to `COc1ccc(C(=O)Cn2c(C(=O)c3ccc(Cl)cc3)nc(-c3ccccc3)c2-c2ccccc2)cc1`, the GI50 in [1] is 34.3 µM; in [2], more than 100 µM; in assay [3] it was more than 100 µM; in [4], more than 100 µM; in [5] it was more than 100 µM; in assay [6] it was 23.6 µM. In addition, the GI50 in assay [7], in assay [8], in [9] and in assay [10] was more than 100 µM in each case. Also, the TGI in assay [1], in [2], in assay [3], in assay [4], in assay [5] and in assay [6] was more than 100 µM each time. The TGI in assay [7], in [8], in assay [9] and in [10] was more than 100 µM throughout.
As for `C/C(=C\c1ccccc1)C(=O)c1c(C)cc(C)cc1C`, the TGI in assay [1], in assay [2], in assay [3], in [4], in [5] and in assay [6] was more than 100 µM throughout. In addition, the total growth inhibition concentration (TGI) in [7], in [8], in [9] and in assay [10] was more than 100 µM each time.
For `CCCC(=O)Nc1cc(/C=C/C(=O)N2C[C@@H]3C[C@]34C2=CC(=O)c2[nH]cc(C)c24)n(C)c1`, the total growth inhibition concentration (TGI) in assay [1] was 0.796 µM; in [2] it was 8.32 µM and 69.9 µM; in assay [3], 2.6 µM; in assay [4], 0.337 µM; in assay [5], 3.76 µM; in assay [6] it was 0.298 µM and 0.238 µM. Besides, the concentration for total growth inhibition (TGI) in [7] is 4.89 µM; in [8] it was 1.6 µM; in assay [9], 2.41 µM and 1.59 µM; in [10] it was 4.34 µM. Further, the GI50 in assay [2] was 0.03 µM; in assay [6] it was 0.111 µM; in [9], 0.064 µM.
Turning to `CNC(=O)NCCCCC(NC(C)=O)C(=O)NCc1ccccc1` (stereo unspecified), the TGI in assay [1], in [2], in assay [3], in [4], in assay [5] and in assay [6] was more than 100 µM each time. Moreover, the concentration for total growth inhibition (TGI) in [7], in [8], in assay [9] and in assay [10] was more than 100 µM in each case.
Consider `CC(=O)/C(=N\N=C(N)N)c1ccccc1`, for which the TGI in assay [1], in [2], in assay [3], in assay [4], in [5] and in assay [6] was more than 100 µM each time. For the same molecule, the TGI in [7], in [8], in assay [9] and in assay [10] was more than 100 µM each time.
With `COc1ccc(/C=C(\C#N)c2cc(OC)c(OC)c(OC)c2)cc1`, the GI50 in assay [1] is 0.0478 µM; in assay [2], 0.0161 µM; in assay [3], less than 0.01 µM; in assay [4] it was 21.3 µM; in assay [5] it was 0.0252 µM; in assay [6], less than 0.0141 µM. Also, the GI50 was 0.0481 µM in assay [7], 0.0634 µM in [8], 0.0486 µM in assay [9] and 0.0389 µM in [10]. The concentration for total growth inhibition (TGI) in assay [1] is more than 100 µM; in [2], more than 100 µM; in assay [3], more than 100 µM; in assay [4], more than 100 µM; in [5] it was 0.0706 µM; in assay [6] it was more than 90.7 µM. The TGI was more than 100 µM in assay [7], more than 100 µM in assay [8], more than 100 µM in [9] and 58.6 µM in [10].
For `O=C(NCCCN1CCN(CCCNC(=O)Nc2cc(Cl)ccc2Cl)CC1)Nc1cc(Cl)ccc1Cl`, the TGI in assay [1] is more than 100 µM; in assay [2], more than 100 µM; in assay [3], more than 100 µM; in assay [4], 54.1 µM; in assay [5], more than 100 µM; in assay [6], more than 100 µM. In addition, the TGI in assay [7], in assay [8], in [9] and in assay [10] was more than 100 µM in each case.
As for `COc1ccc(C(=O)c2ccccc2)c(O)c1`, the GI50 is more than 100 µM in assay [1]; 50.7 µM in [2]; 63 µM in assay [3]; 61.4 µM in assay [4]; more than 100 µM in assay [5]; 41 µM in [6]. The GI50 in assay [7] was 55.2 µM; in [8], more than 100 µM; in assay [9], 75.6 µM; in assay [10] it was 17 µM. In addition, the TGI in [1], in assay [2], in [3], in [4], in assay [5] and in assay [6] was more than 100 µM in each case. Further, the TGI in assay [7], in assay [8], in assay [9] and in assay [10] was more than 100 µM throughout.
With `CN1C2C=CC(=O)C1C(C#N)C2` (stereo unspecified), the TGI was more than 100 µM in assay [1]; 54.9 µM and > 100 µM in [2]; more than 100 µM in assay [3]; 51 µM and > 100 µM in assay [4]; more than 100 µM in [5]; 64.3 µM and > 100 µM in [6]. Moreover, the total growth inhibition concentration (TGI) in [7] is more than 100 µM; in assay [8], more than 100 µM; in assay [9] it was more than 100 µM; in [10], 39 µM and > 100 µM. For the same molecule, the GI50 is 97.7 µM in assay [5]; 23.9 µM and 57.7 µM in assay [6]; 30 µM and > 100 µM in [8]; 19.1 µM and 39.8 µM in [10].
As to `NCCOCCOCC(=O)O`, the concentration for total growth inhibition (TGI) in [1], in [2], in [3], in [4], in [5] and in assay [6] was more than 100 µM throughout. Further, the TGI in assay [7], in assay [8], in [9] and in assay [10] was more than 100 µM each time.
